Experimental data reported in publication PMC3152630 (Pharmaceutical research, 2011).

Test system: diabetic rats (blood glucose level, BGL)
Experiment: BGL pharmacodynamics after insulin administration to diabetic rats
Format: in vivo, rat
Details: bolus subcutaneous injection of 0.1 U insulin, unbalanced ANOVA, P < 0.001

## Insulin
  reduction in BGL compared to untreated controls: significant reduction in BGL
